Results published in patent publication US20170328922A1, “METHODS AND PRODUCTS FOR LABELLING LIPIDS” (UNIVERSITY OF SOUTH AUSTRALIA, priority 2014, published 2017).

How the values were obtained:
[1] = Rhenium molecular probe-lipid overlay (dot blot); format: binding; set-up: key to interaction with Lysophosphatidic acid (dot blot): ✓ indicates a positive interaction; x indicates no interaction
Description: (§1) The experimental protocol probe-lipid overlay was as follows: 50 μM of each lipids was loaded on to PVDF membranes (Perkin Elmer, USA), which were then incubated with molecular probes. PhenCyano and PhenPyridyl were assessed against eleven lipids including; sphingomyelin (Cat # S0756, Sigma Aldrich, USA), sphingosine (Cat # S7049; Sigma Aldrich, USA), L-phosphatidylethanolamine (Cat # P7943, Sigma Aldrich, USA), monosialodanglioside (GM1; Cat # G7641, Sigma Aldrich, USA), oleoly-L-?-lysophosphatidic acid (Cat # L7260, Sigma Aldrich, USA), palmitic acid (Cat # P5917, Sigma Aldrich, USA), sphingomyelin (Cat # S0756, Sigma Aldrich, USA), sphingosine (Cat # S7049; Sigma Aldrich, USA), L-?-phosphatidylethanolamine (Cat # P7943, Sigma Aldrich, USA), monosialodanglioside (GM1; Cat # G7641, Sigma Aldrich, USA), progesterone (Cat #102722, MP Biomedical, USA), ceramide (Cat # C2137; Sigma Aldrich, USA), triacylglycerol mix C2-C10 (Cat #17810, Sigma Aldrich, USA) and cholesteryl acetate (Cat #151114; Sigma Aldrich, USA).
(§2) Lipids were dissolved in ethanol, methanol or isopropanol for loading depending on solubility. Following lipid loading, membranes were left to dry for 20-30 minutes, then they were washed for 10 minutes in cold 10% ethanol, before they were incubated with 10 μM solution of each Rhenium molecular probe in cold 10% ethanol for one hour. Membranes were than washed four times for 10 minutes in cold 10% ethanol prior to imaging. Imaging was performed on an Image Quant Las 4000 (GE, Sweden) luminescent image analyser, with the Rhenium molecular probe being detected by excitation at 460 nm using an epi-blue light source, and detected using an 575 nm ethidium bromide filter.

[2] = Rhenium molecular probe-lipid overlay (dot blot); format: binding; set-up: key to interaction with Sphingomyline (dot blot): ✓ indicates a positive interaction; x indicates no interaction
Description: as §1
(§3) All other molecular probes were assessed against a panel of six lipids including; sphingomyelin (Cat # S0756, Sigma Aldrich, USA), sphingosine (Cat # S7049; Sigma Aldrich, USA), L-?-phosphatidylethanolamine (Cat # P7943, Sigma Aldrich, USA), monosialodanglioside (GM1; Cat # G7641, Sigma Aldrich, USA), sphingomyelin (Cat # S0756, Sigma Aldrich, USA), sphingosine (Cat # S7049; Sigma Aldrich, USA), L-?-phosphatidylethanolamine (Cat # P7943, Sigma Aldrich, USA), monosialodanglioside (GM1; Cat # G7641, Sigma Aldrich, USA) and triacylglycerol mix C2-C10 (Cat #17810, Sigma Aldrich, USA).
as §2

[3] = tested on: Drosophila fat body cells; experiment: Live tissue staining with rhenium molecular probes (Examples 10, 13); format: cell-based; details: live samples, 10-20 μM probe
Description: (§4) Probes were dissolved in DMSO to obtain a stock solution with a concentration of 10 mM. Stock solutions were stored at room temperature in a dark place. Working solutions were prepared only at the time of use as the probe has reduced solubility in aqueous solutions. A Working solution was a dilution 1/1000 to 1/500 of the stock in DMSO to PBS or cell medium, and as such the percentage of DMSO used in actual cell experiments was less than 1%.
(§5) For tissues, the tissues were isolated in PBS (or other physiological media) and mounted on a coverslip. For cells, these were grown as per normal practice on coverslips.
(§6) The media was removed media and replaced with 10-20 μM solution of molecular probes in PBS (or appropriate physiological media/cell media) at a dilution of stock solution from 1/1000-1/500, for 15-30 minutes at physiologically appropriate temperature (37° C. for cell culture or 25° C. for insect larvae). […] If foetal calf serum is necessary for cell health, an increased incubation time may be necessary to obtain adequate staining.
The samples were washed for one minute in PBS. If co-staining was performed, the samples were washed in PBS for 30 seconds, before incubating with counterstain.
Tissues were mounted in optical coupling gel, such as carbomer-940 (Snowdrift farm, Tucson, USA) based gel to prevent dehydration prior to imaging and maintain tissue integrate (Rothstein, E. C., Nauman, M., Chesnick S., Balaban R. S., 2006, Multi-photon excitation microscopy in intact animals Journal of Microscopy 222, 58, 64). For cells, the coverslip was mounted in PBS for immediate imaging.
Samples were imaged immediately following staining.
Rhenium molecular probes were? excited at 800-830 nm using a two-photon pulse laser or 405 steady state laser and detection in the range of 490-670 nm, with an emission maxima at around 570.
Micrographs of 3T3 L1, 453 cells and CHOK1 cells and Drosophila fat body tissue stained with rhenium molecular probes, PhenCyan top, PhenPyridyl bottom are shown in FIG. 10. […] Left: confocal images; Right: fluorescence microscopy images. […]

[4] = Rhenium molecular probe-lipid overlay (dot blot); format: binding; details: FIG. 7
Description: as §1, §2

[5] = Rhenium molecular probe-lipid overlay (dot blot); format: binding; set-up: key to interaction with PE (dot blot): ✓ indicates a positive interaction; x indicates no interaction
Description: as §1, §3, §2

[6] = Rhenium molecular probe-lipid overlay (dot blot); format: binding; details: FIG. 7 / FIG. 8
Description: as §1, §3, §2

[7] = Rhenium molecular probe-lipid overlay (dot blot); format: binding; set-up: key to interaction with Cholestryl acetate (dot blot): ✓ indicates a positive interaction; x indicates no interaction
Description: as §1, §2

[8] = Rhenium molecular probe-lipid overlay (dot blot); format: binding; details: FIG. 7 / FIG. 8
Description: as §1, §3, §2

[9] = Rhenium molecular probe-lipid overlay (dot blot); format: binding; details: FIG. 7 / FIG. 8
Description: as §1, §3, §2

[10] = Rhenium molecular probe-lipid overlay (dot blot); format: binding; details: FIG. 7
Description: as §1, §2

[11] = Rhenium molecular probe-lipid overlay (dot blot); format: binding; details: FIG. 7
Description: as §1
Lipids were dissolved in ethanol, methanol or isopropanol for loading depending on solubility. […] Imaging was performed on an Image Quant Las 4000 (GE, Sweden) luminescent image analyser, with the Rhenium molecular probe being detected by excitation at 460 nm using an epi-blue light source, and detected using an 575 nm ethidium bromide filter.

3T3 L1 cells = experiment: Live cell staining with rhenium molecular probes; format: cell-based; details: live samples, 10-20 μM probe
Description: as §4, §5, §6
The samples were washed for one minute in PBS. […]
Micrographs of 3T3 L1, 453 cells and CHOK1 cells and Drosophila fat body tissue stained with rhenium molecular probes, PhenCyan top, PhenPyridyl bottom are shown in FIG. 10. […] Left: confocal images; Right: fluorescence microscopy images.

[12] = Rhenium molecular probe-lipid overlay (dot blot); format: binding; set-up: key to interaction with GM1 (dot blot): ✓ indicates a positive interaction; x indicates no interaction
Description: as §1, §3, §2

[13] = 10 μM probe, 50 μM lipid on PVDF membrane

For `O=[C]=[Re](=[C]=O)(=[C]=O)[n]1nnc(-c2cccnc2)n1.c1cnc2c(c1)ccc1cccnc12` [PhenPyridyl, Triscarbonyl phenanthroline (3-pyridyltetrazolato)Rhenium(I)], the “interaction with Lysophosphatidic acid (dot blot)” value [1, 13] was “✓”, the “affinity towards lysophosphatidic acid, in words” value ([1]; FIG. 7) was “some affinity” and the “interaction with Sphingomyline (dot blot)” value [2, 13] was “✓”. The “affinity towards sphingomyelin, in words” value ([2]; FIG. 7 / FIG. 8) was “some affinity”, the “staining pattern in Drosophila fat body cells” value [3] was “limited to no lipid droplet staining” and the “interaction with ceramide, in words” value [4] was “no interaction detected”. The “interaction with PE (dot blot)” value [5, 13] was “✓”, the “affinity towards phosphatidylethanolamine (PE), in words” value ([5]; FIG. 7 / FIG. 8) was “some affinity” and the “affinity towards cholesterol, in words” value [6] was “some affinity”. The “interaction with Cholestryl acetate (dot blot)” value [7, 13] was “x”, the “interaction with cholesterol ester (cholesteryl acetate), in words” value ([7]; FIG. 7) was “no interaction detected” and the “affinity towards sphingosine, in words” value [8] was “some affinity”. The “interaction with triglycerides, in words” value [9] was “no interaction detected”, the “affinity towards progesterone, in words” value [10] was “some affinity” and the “interaction with fatty acid (palmitic acid), in words” value [11] was “no interaction detected”. For the same compound, the “staining pattern in 3T3 L1 cells” value (3T3 L1 cells) was “limited to no lipid droplet staining”, the “interaction with GM1 (dot blot)” value [12, 13] was “✓” and the “affinity towards monosialotetrahexosylganglioside (GM1), in words” value ([12]; FIG. 7 / FIG. 8) was “some affinity”.
